Reference: patent publication US20050208496A1, “Methods of testing for bronchial asthma or chronic obstructive pulmonary disease” (Genox Research, Inc., priority 2002, published 2005)

Legend:
pendrin gene = test: Quantitative PCR (ABI 7700) of the pendrin gene in epithelial cells cultured by the AI or IMM method; format: cell-based, human; conditions: respiratory tract epithelial cells
From the text: Quantitative PCR assays were further performed with ABI 7700 using two batches of epithelial cells cultured respectively by the AI method and the IMM method described in Example 1 to quantitatively determine the expression level of the pendrin gene selected in Example 5. The primers and TaqMan probe used in the assays with ABI 7700 were designed based on the information on the sequence of the pendrin gene utilizing Primer Express (PE Biosystems). The 5′ and 3′ ends of the TaqMan probe were labeled with FAM (6-carboxy-fluorescein) and TAMRA (6-carboxy-N,N,N′,N′-tetramethylrhodamine), respectively. The sequences of oligonucleotides of the forward primer (F), reverse primer (R), and TaqMan probe (TP) for the pendrin gene are shown below. The GenBank accession number corresponding to the nucleotide sequence of each marker gene is shown in parenthesis after the name.
Total RNA extracted by the aforementioned method was treated with DNase (Nippon Gene). […]
Additionally, to correct the differences of cDNA concentration in the sample, a similar quantitative analysis was performed for β-actin gene and glyceraldehyde-3-phosphate dehydrogenase (GAPDH) gene as internal standards for correction. By correcting based on the number of copies of these genes, the number of copies of the genes of interest was calculated. […]

[1] = tested on: mouse OVA antigen-exposed bronchial hypersensitivity model; test: Quantitative PCR (ABI 7700) of selected genes using cDNA of the mouse OVA antigen-exposed bronchial hypersensitivity model; format: in vivo; conditions: OVA-administered group
Protocol: Eighty-eight genes, most of which were recognized as genes whose expression levels were altered in human and mouse, were selected from the genes narrowed down in Section 4. A quantitative PCR assay was carried out with ABI 7700 using cDNA from the human goblet cell differentiation model and using cDNA from the mouse OVA antigen-exposed bronchial hypersensitivity model.
The primers and TaqMan probe used in the assay with ABI 7700 were designed based on the information on the sequence of each gene utilizing Primer Express (PE Biosystems). The 5′ and 3′ ends of the TaqMan probe were labeled with FAM (6-carboxy-fluorescein) and TAMRA (6-carboxy-N,N,N′,N′-tetramethylrhodamine), respectively. The nucleotide sequences of oligonucleotides for the forward primer (F), reverse primer (R), and TaqMan probe (TP) for each gene are shown below. […]
Furthermore, similar quantitative analyses for the β-actin gene and the glyceraldehyde-3-phosphate dehydrogenase (GAPDH) gene as internal standards for correction were carried out to correct the difference of cDNA concentration in a sample. The copy number of the gene of interest was determined by correcting based on the determined copy numbers for the genes. […]

| Substance | pendrin gene expression level, elevation as a result of IL-13 stimulation (quantitative PCR) (pendrin gene) | expression levels of the respective genes (quantitative PCR, corrected with β-actin) [1] |
| --- | --- | --- |
| IL-13: human IL-13 (Peprotech, Inc.) added to the medium at 50 ng/mL to stimulate respiratory epithelial cells | hundred folds or more | – |
| ovalbumin [OVA antigen, ovalbumin antigen used for sensitization and inhalation to induce bronchial hypersensitivity in mice] | – | significant variations |
